Reference: article PMC7288171, “Synergistic Effects of Thiosemicarbazides with Clinical Drugs against S. aureus” (Molecules, 2020)
Values after ≈ are worked out from the molar mass of the structure shown.

Key:
[1] = test system: B. cereus ATCC 10876; design: method as in PMID 25897586; settings: B. c. ATCC 10876; compounds 1–5; cited from earlier work
[2] = test system: S. aureus ATCC 25923; design: method as in PMID 25897586; settings: S. a. ATCC 25923; compounds 1–5; cited from earlier work
[3] = test system: L929 cell line; test: Cytotoxicity (earlier study); format: cell-based; settings: L929 IC30 / MIC S. aureus ATCC 25923
Excerpt: (§1) For the compound with the best solubility (2), its cytotoxicity against L929 and HeLa cells was presented previously. The cytotoxicity was expressed as rigorous IC30 values, defined as the highest dilutions of test samples that cause 30% or greater destruction of cells.

[4] = test system: HeLa cell line; test: Cytotoxicity (earlier study); format: cell-based; settings: HeLa IC30 / MIC S. aureus ATCC 25923
Excerpt: as §1

[5] = test system: B. subtilis ATCC 6633; design: method as in PMID 25897586; settings: B. s. ATCC 6633; compounds 1–5; cited from earlier work
[6] = test system: MSSA-4; test: MIC, clinical isolate of S. aureus; format: cell-based; settings: Staphylococcus aureus; clinical isolate MSSA-4; read-out: MIC
How it was run: (§2)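 Panel: Gram-pos. ATCC strains plus clinical S. aureus isolates (MSSA, MRSA). Test cpds: thiosemicarbazides. Ref. antibiotics: amoxicillin, gentamicin, levofloxacin, linezolid, vancomycin.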

[7] = test system: MSSA-2; test: MIC, clinical isolate of S. aureus; format: cell-based; settings: Staphylococcus aureus; clinical isolate MSSA-2; read-out: MIC
How it was run: as §2

[8] = test system: MSSA-3; test: MIC, clinical isolate of S. aureus; format: cell-based; settings: Staphylococcus aureus; clinical isolate MSSA-3; read-out: MIC
How it was run: as §2

[9] = test system: MRSA-1; test: MIC, clinical isolate of S. aureus; format: cell-based; settings: Staphylococcus aureus; clinical isolate MRSA-1; read-out: MIC
How it was run: as §2

[10] = test system: MSSA-1; test: MIC, clinical isolate of S. aureus; format: cell-based; settings: Staphylococcus aureus; clinical isolate MSSA-1; read-out: MIC
How it was run: as §2

[11] = test system: HeLa cell line; design: method as in PMID 25897586; settings: IC30 = 30% or greater destruction of cells; cited from earlier work
[12] = test system: S. epidermidis ATCC 12228; design: method as in PMID 25897586; settings: S. e. ATCC 12228; compounds 1–5; cited from earlier work
[13] = test system: S. aureus ATCC 6538; design: method as in PMID 25897586; settings: S. a. ATCC 6538; compounds 1–5; cited from earlier work
[14] = test system: human foreskin fibroblast Hs27 cells (CRL-1634); test: MTT cytotoxicity assay; format: cell-based; settings: Homo sapiens, 24 h of treatment
[15] = MTT cytotoxicity assay; format: cell-based, human; settings: human, Hs27 foreskin fibroblast cells (ATCC CRL-1634), 25 µg/mL, 24 h, vehicle control = 100%
[16] = test system: S. aureus ATCC 25923; test: Checkerboard broth dilution synergy assay; format: cell-based
How it was run: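 Checkerboard broth microdilution against S. aureus ATCC 25923 paired each thiosemicarbazide with amoxicillin, gentamicin, levofloxacin, linezolid or vancomycin. FICI is the sum of each drug's MIC in combination divided by its MIC alone: ≤0.5 synergy, 0.5–1 additive, 1–4 indifferent, ≥4 antagonism.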

[17] = test system: M. luteus ATCC 10240; design: method as in PMID 25897586; settings: M. l. ATCC 10240; compounds 1–5; cited from earlier work
[18] = test system: L929 cell line; design: method as in PMID 25897586; settings: IC30 = 30% or greater destruction of cells; cited from earlier work

- MIC [6]: 500 µg/mL (≈ 1310 µM)
- MIC [7]: > 500 µg/mL
- MIC [8]: > 500 µg/mL
- MIC [9]: 500 µg/mL (≈ 1310 µM)
- MIC [10]: > 500 µg/mL
Compound: Cc1cccc(C(=O)NC(=S)NNC(=O)c2cccc(Cl)c2Cl)c1 [compound 2]
- MIC [1]: 1.95 µg/mL (≈ 5.1 µM)
- MIC [2]: 7.81 µg/mL (≈ 20.4 µM)
- selectivity index SI (SI = IC30/MIC) [3]: 3.94
- selectivity index SI (SI = IC30/MIC) [4]: 3.97
- MIC [5]: 0.49 µg/mL (≈ 1.28 µM)
- IC30 [11]: 30.97 µg/mL (≈ 81 µM)
- MIC [12]: 3.91 µg/mL (≈ 10.2 µM)
- MIC [13]: 7.81 µg/mL (≈ 20.4 µM)
- IC50 [14]: > 25 µg/mL
- viability at 24 h, 25 µg/mL [15]: 76.7%
- interaction in combination ([16]; combination with amoxicillin): additive
- interaction in combination ([16]; combination with gentamicin): no interactions
- interaction in combination ([16]; combination with levofloxacin): no interactions
- interaction in combination ([16]; combination with linezolid): synergistic
- interaction in combination ([16]; combination with vancomycin): no interactions
- MIC [17]: 0.98 µg/mL (≈ 2.56 µM)
- IC30 [18]: 30.78 µg/mL (≈ 80.5 µM)
